In brackets after ≈: the same amount, converted by molar mass. Read-outs that look alike come from different tables or passages of the source.
What was measured:
B. vulgatus = assay: Spontaneous mutation frequency and mutation prevention concentration (MPC); assay type: cell-based; conditions: B. vulgatus ATCC 8482
Excerpt: (§1) As used herein, “spontaneous mutation frequency” refers to the rate at which mutations arise in a bacterium that can lead to resistance to develop to an antimicrobial agent. “Mutation prevention concentration” or “MPC” refers to the lowest concentration of antimicrobial agent above which the selective proliferation of resistant mutants is expected to occur only rarely.

Escherichia coli = assay: as above; assay type: cell-based
Excerpt: as §1

S. agalactiae = assay: as above; assay type: cell-based; conditions: S. agalactiae ATCC 13813
Excerpt: as §1

S. pneumonia = assay: as above; assay type: cell-based; conditions: S. pneumoniae ATCC 49619; for Average Count / Count 1 / Count 2 / Spontaneous Mutation Frequency: 0.5 μg/mL
Excerpt: as §1

S. pyogenes = assay: as above; assay type: cell-based; conditions: S. pyogenes ATCC 49399
Excerpt: as §1

B. fragilis ATCC 25285 = assay: Broth microdilution MIC (time-kill study); assay type: cell-based, Bacteroides fragilis
E. coli ATCC 35218 = assay: Time-kill assay; assay type: cell-based, Escherichia coli; conditions: 2×, 4×, 8× MIC; 2, 6, 24 hr
[1] = tested on: Streptococcus spp. spontaneous mutants; assay: organism not typed; assay type: cell-based
Outline: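 Spontaneous mutants from drug selection plates were tested by CLSI broth microdilution in MHB II with two-fold serial drug dilutions. Inoculum was about 5×10^5 CFU/mL, incubated aerobically at 35° C. for 18-20 hr. MIC was the lowest concentration inhibiting visible growth.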

[2] = ceftriaxone selection 4X MIC, 16 μg/mL
[3] = ceftriaxone selection 8X MIC, 32 μg/mL
[4] = mutant prevention concentration
[5] = E. coli ATCC 25922, ceftriaxone selection 8X MIC, 0.5 μg/mL
[6] = E. coli MMX 1312, ceftriaxone selection 4X MIC, 16 μg/mL
[7] = E. coli MMX 1312, ceftriaxone selection 8X MIC, 32 μg/mL
[8] = ceftriaxone selection 8X MIC, 0.5 μg/mL
[9] = Bacteroides fragilis, ATCC25285, broth microdilution, read-out: MIC
[10] = S. pneumoniae ATCC 49619, selected on rifaximin 4X MIC, Colony A
[11] = S. pneumoniae ATCC 49619, selected on rifaximin 4X MIC, Colony B
[12] = S. pneumoniae ATCC 49619, selected on rifaximin 8X MIC, Colony A
[13] = S. pneumoniae ATCC 49619, selected on rifaximin 8X MIC, Colony B
[14] = S. pneumoniae ATCC 49619 Parent
[15] = S. pyogenes ATCC 49399, selected on rifaximin 4X MIC, Colony A
[16] = S. pyogenes ATCC 49399, selected on rifaximin 4X MIC, Colony B
[17] = S. pyogenes ATCC 49399, selected on rifaximin 8X MIC, Colony A
[18] = S. pyogenes ATCC 49399, selected on rifaximin 8X MIC, Colony B
[19] = Streptococcus, ATCC13813, S. agaloctiae ATCC 13813, selected on rifaximin 4X MIC, Colony A
[20] = Streptococcus, ATCC13813, S. agaloctiae ATCC 13813, selected on rifaximin 4X MIC, Colony B
[21] = Streptococcus, ATCC13813, S. agaloctiae ATCC 13813, selected on rifaximin 8X MIC, Colony A
[22] = Streptococcus, ATCC13813, S. agaloctiae ATCC 13813, selected on rifaximin 8X MIC, Colony B
[23] = Streptococcus, ATCC13813, S. agaloctiae ATCC 13813 Parent
[24] = E. coli ATCC 25922, selection 4X MIC, 0.06 μg/mL
[25] = E. coli ATCC 35218, selection 4X MIC, 0.06 μg/mL
[26] = E. coli MMX 1312, selection 4X MIC, 0.06 μg/mL, TNTC = too numerous to count

Compound: CO/N=C(\C(=O)N[C@@H]1C(=O)N2C(C(=O)O)=C(CSc3nc(=O)c(=O)[nH]n3C)CS[C@H]12)c1csc(N)n1 [ceftriaxone]
- Average Count (B. vulgatus; [2]): TNTC
- Count 1 (B. vulgatus; [2]): TNTC
- Count 2 (B. vulgatus; [2]): TNTC
- Spontaneous Mutation Frequency (B. vulgatus; ceftriaxone selection 4X MIC, 16 μg/mL, based on estimated count of >500 average CFU): >8.69 × 10^−8
- Average Count (B. vulgatus; [3]): 0 CFU
- Count 1 (B. vulgatus; [3]): 0 CFU
- Count 2 (B. vulgatus; [3]): 0 CFU
- Spontaneous Mutation Frequency (B. vulgatus; [3]): ≤1.74 × 10^−10
- MPC (B. vulgatus; [4]): 32 µg/mL
- Average Count (Escherichia coli; [5]): 0 CFU
- Count 1 (Escherichia coli; [5]): 0 CFU
- Count 2 (Escherichia coli; [5]): 0 CFU
- Spontaneous Mutation Frequency (Escherichia coli; [5]): ≤7.41 × 10^−9
- MPC (Escherichia coli; E. coli ATCC 25922, mutant prevention concentration): 0.25 µg/mL
- MPC (Escherichia coli; E. coli ATCC 35218, mutant prevention concentration): 0.12 µg/mL
- Average Count (Escherichia coli; [6]): TNTC
- Count 1 (Escherichia coli; [6]): TNTC
- Count 2 (Escherichia coli; [6]): TNTC
- Average Count (Escherichia coli; [7]): TNTC
- Count 1 (Escherichia coli; [7]): TNTC
- Count 2 (Escherichia coli; [7]): TNTC
- Average Count (S. agalactiae; [8]): 0 CFU
- Count 1 (S. agalactiae; [8]): 0 CFU
- Count 2 (S. agalactiae; [8]): 0 CFU
- Spontaneous Mutation Frequency (S. agalactiae; [8]): ≤1.73 × 10^−10
- MPC (S. agalactiae; [4]): 0.12 µg/mL
- Average Count (S. pneumonia; ceftriaxone selection 8X MIC): 0 CFU
- Count 1 (S. pneumonia; ceftriaxone selection 8X MIC): 0 CFU
- Count 2 (S. pneumonia; ceftriaxone selection 8X MIC): 0 CFU
- Spontaneous Mutation Frequency (S. pneumonia; ceftriaxone selection 8X MIC): ≤9.52 × 10^−10
- MPC (S. pneumonia; [4]): 0.25 µg/mL
- MPC (S. pyogenes; [4]): 0.12 µg/mL
- MIC (B. fragilis ATCC 25285; B. fragilis MMX 123 ATCC 25285): 32 µg/mL (≈ 57.7 µM)
- MIC (B. fragilis ATCC 25285; [9]): 32 µg/mL (≈ 57.7 µM)
- time-kill kinetics outcome (bactericidal = ≥3 log reduction in CFU per mL) (E. coli ATCC 35218): bactericidal at 24 hr at 4× and 8×MIC
- MIC [1, 10]: 0.03 µg/mL (≈ 0.0541 µM)
- MIC [1, 11]: 0.06 µg/mL (≈ 0.108 µM)
- MIC [1, 12]: 0.03 µg/mL (≈ 0.0541 µM)
- MIC [1, 13]: 0.03 µg/mL (≈ 0.0541 µM)
- MIC [1, 14]: 0.06 µg/mL (≈ 0.108 µM)
- MIC [1, 15]: 0.008 µg/mL (≈ 0.0144 µM)
- MIC [1, 16]: 0.015 µg/mL (≈ 0.027 µM)
- MIC [1, 17]: 0.015 µg/mL (≈ 0.027 µM)
- MIC [1, 18]: 0.008 µg/mL (≈ 0.0144 µM)
- MIC ([1]; S. pyogenes ATCC 49399 Parent): 0.015 µg/mL (≈ 0.027 µM)
- MIC [1, 19]: 0.015 µg/mL (≈ 0.027 µM)
- MIC [1, 20]: 0.015 µg/mL (≈ 0.027 µM)
- MIC [1, 21]: 0.015 µg/mL (≈ 0.027 µM)
- MIC [1, 22]: 0.06 µg/mL (≈ 0.108 µM)
- MIC [1, 23]: 0.015 µg/mL (≈ 0.027 µM)

Compound: C[C@@H](O)[C@H]1C(=O)N2C(C(=O)O)=C(S[C@@H]3CN[C@H](C(=O)N(C)C)C3)[C@H](C)[C@H]12 [meropenem]
- MPC (B. vulgatus): 0.5 µg/mL
- Average Count (B. vulgatus; selection 4X MIC, 0.5 μg/mL): 0 CFU
- Count 1 (B. vulgatus; selection 4X MIC, 0.5 μg/mL): 0 CFU
- Count 2 (B. vulgatus; selection 4X MIC, 0.5 μg/mL): 0 CFU
- Spontaneous Mutation Frequency (B. vulgatus; selection 4X MIC, 0.5 μg/mL): ≤1.73 × 10^−10
- Average Count (B. vulgatus; selection 8X MIC, 1 μg/mL): 0 CFU
- Count 1 (B. vulgatus; selection 8X MIC, 1 μg/mL): 0 CFU
- Count 2 (B. vulgatus; selection 8X MIC, 1 μg/mL): 0 CFU
- Spontaneous Mutation Frequency (B. vulgatus; selection 8X MIC, 1 μg/mL): ≤1.73 × 10^−10
- Average Count (Escherichia coli): 0 CFU
- Count 1 (Escherichia coli): 0 CFU
- Count 2 (Escherichia coli): 0 CFU
- MPC (Escherichia coli; E. coli ATCC 25922): 0.06 µg/mL
- Average Count (Escherichia coli; [24]): 0 CFU
- Count 1 (Escherichia coli; [24]): 0 CFU
- Count 2 (Escherichia coli; [24]): 0 CFU
- Spontaneous Mutation Frequency (Escherichia coli; [24]): ≤7.41 × 10^−9
- MPC (Escherichia coli; E. coli ATCC 35218): 0.06 µg/mL
- Average Count (Escherichia coli; [25]): 0 CFU
- Count 1 (Escherichia coli; [25]): 0 CFU
- Count 2 (Escherichia coli; [25]): 0 CFU
- Spontaneous Mutation Frequency (Escherichia coli; [25]): ≤5.13 × 10^−9
- Average Count (Escherichia coli; [26]): TNTC
- Count 1 (Escherichia coli; [26]): TNTC
- Count 2 (Escherichia coli; [26]): TNTC
- MPC (S. agalactiae): 0.12 µg/mL
- MPC (S. pneumonia): 0.25 µg/mL
- Average Count (S. pneumonia; selection 8X MIC): 0 CFU
- Count 1 (S. pneumonia; selection 8X MIC): 0 CFU
- Count 2 (S. pneumonia; selection 8X MIC): 0 CFU
- Spontaneous Mutation Frequency (S. pneumonia; selection 8X MIC): ≤9.52 × 10^−10
- MPC (S. pyogenes): 0.03 µg/mL
- Average Count (S. pyogenes; selection 4X MIC, 0.03 μg/mL): 0 CFU
- Count 1 (S. pyogenes; selection 4X MIC, 0.03 μg/mL): 0 CFU
- Count 2 (S. pyogenes; selection 4X MIC, 0.03 μg/mL): 0 CFU
- Spontaneous Mutation Frequency (S. pyogenes; selection 4X MIC, 0.03 μg/mL): ≤1.81 × 10^−10
- Average Count (S. pyogenes; selection 8X MIC, 0.06 μg/mL): 0 CFU
- Count 1 (S. pyogenes; selection 8X MIC, 0.06 μg/mL): 0 CFU
- Count 2 (S. pyogenes; selection 8X MIC, 0.06 μg/mL): 0 CFU
- Spontaneous Mutation Frequency (S. pyogenes; selection 8X MIC, 0.06 μg/mL): ≤1.81 × 10^−10
- MIC (B. fragilis ATCC 25285; B. fragilis MMX 123 ATCC 25285): 0.06 µg/mL (≈ 0.156 µM)
- MIC (B. fragilis ATCC 25285; [9]): 0.06 µg/mL (≈ 0.156 µM)
- time-kill kinetics outcome (bactericidal = ≥3 log reduction in CFU per mL) (E. coli ATCC 35218): rapid killing and bactericidal activity at the two higher concentrations at 24 hr
- MIC [1, 10]: 0.03 µg/mL (≈ 0.0782 µM)
- MIC [1, 11]: 0.03 µg/mL (≈ 0.0782 µM)
- MIC [1, 12]: 0.03 µg/mL (≈ 0.0782 µM)
- MIC [1, 13]: 0.03 µg/mL (≈ 0.0782 µM)
- MIC [1, 14]: 0.03 µg/mL (≈ 0.0782 µM)
- MIC [1, 15]: 0.002 µg/mL (≈ 0.00522 µM)
- MIC [1, 16]: 0.004 µg/mL (≈ 0.0104 µM)
- MIC [1, 17]: 0.004 µg/mL (≈ 0.0104 µM)
- MIC [1, 18]: 0.004 µg/mL (≈ 0.0104 µM)
- MIC ([1]; S. pyogenes ATCC 49399 Parent): 0.004 µg/mL (≈ 0.0104 µM)
- MIC [1, 19]: 0.015 µg/mL (≈ 0.0391 µM)
- MIC [1, 20]: 0.015 µg/mL (≈ 0.0391 µM)
- MIC [1, 21]: 0.015 µg/mL (≈ 0.0391 µM)
- MIC [1, 22]: 0.03 µg/mL (≈ 0.0782 µM)
- MIC [1, 23]: 0.008 µg/mL (≈ 0.0209 µM)

Compound: CN[C@H](CC(C)C)C(=O)N[C@H]1C(=O)N[C@@H](CC(N)=O)C(=O)N[C@H]2C(=O)N[C@H]3C(=O)N[C@H](C(=O)N[C@H](C(=O)O)c4cc(O)cc(O)c4-c4cc3ccc4O)[C@H](O)c3ccc(c(Cl)c3)Oc3cc2cc(c3O[C@@H]2O[C@H](CO)[C@@H](O)[C@H](O)[C@H]2O[C@H]2C[C@](C)(N)[C@H](O)[C@H](C)O2)Oc2ccc(cc2Cl)[C@H]1O [vancomycin, Vancomycin]
- MIC (B. fragilis ATCC 25285; Bacteroides fragilis, ATCC25285, B. fragilis MMX 123 ATCC 25285, read-out: MIC): > 16 µg/mL

Compound: Penicillin
- MIC ([1]; S. agaloctiae ATCC 13813, selected on rifaximin 4X MIC, Colony A): 0.015 µg/mL
- MIC ([1]; S. agaloctiae ATCC 13813, selected on rifaximin 4X MIC, Colony B): 0.015 µg/mL
- MIC ([1]; S. agaloctiae ATCC 13813, selected on rifaximin 8X MIC, Colony A): 0.015 µg/mL
- MIC ([1]; S. agaloctiae ATCC 13813, selected on rifaximin 8X MIC, Colony B): 0.015 µg/mL
- MIC ([1]; S. agaloctiae ATCC 13813 Parent): 0.015 µg/mL
- MIC [1, 10]: 0.12 µg/mL
- MIC [1, 11]: 0.25 µg/mL
- MIC [1, 12]: 0.25 µg/mL
- MIC [1, 13]: 0.25 µg/mL
- MIC [1, 14]: 0.25 µg/mL
- MIC [1, 15]: 0.004 µg/mL
- MIC [1, 16]: 0.008 µg/mL
- MIC [1, 17]: 0.004 µg/mL
- MIC [1, 18]: 0.004 µg/mL
- MIC ([1]; S. pyogenes ATCC 49399 Parent): 0.008 µg/mL

Compound: piperacillin/tazobactam [piperacillin-tazobactam]
- MIC (B. fragilis ATCC 25285; B. fragilis MMX 123 ATCC 25285): 8 µg/mL

Reference: US20210386367A1, “DEVICES AND SYSTEMS FOR GASTROINTESTINAL MICROBIOME DETECTION AND MANIPULATION” (Progenity, Inc., priority 2018, published 2021)
